From US9029367B2, “BACE inhibitors” (Eli Lilly and Company, priority 2013, dated 2015) come the findings set out here.

Where a name gives a salt, the structure may show the parent alone. Read-outs that look alike come from different tables or passages of the source.

The test system of experiment [1] is Abeta released by primary cortical neurons from PDAPP transgenic embryonic mice. As to the kind of experiment: PDAPP Primary Neuronal Assay (Abeta 1-40 and 1-42 sandwich ELISAs). Type of experiment: cell-based. To be noted: Mus musculus, Primary cortical neuron, 24 h incubation. The method, then:
For in vitro enzymatic and cellular assays, test compounds are prepared in DMSO to make up a 10 mM stock solution. […] A confirmatory whole cell assay is also run in primary neuronal cultures generated from PDAPP transgenic embryonic mice (May, et al., Journal of Neuroscience, 31, 16507-16516 (2011)). Primary cortical neurons are prepared from Embryonic Day 16 PDAPP embryos and cultured in 96 well plates (15×10^4 cells/well in DMEM/F12 (1:1) plus 10% FBS). After 2 days in vitro, culture media is replaced with serum free DMEM/F12 (1:1) containing B27 supplement and 2 μM (final) of Ara-C (Sigma, C1768). At day 5 in vitro, neurons are incubated at 37° C. for 24 h in the presence/absence of inhibitors (diluted in DMSO) at the desired concentration. […] Natl. Acad. Sci. USA 94, 1550-1555 (1997)). The concentration of Abeta released in the conditioned media following the compound treatment corresponds to the activity of BACE1 under such conditions.

For experiment [2], the system named is Abeta 1-x peptide levels in brain of young female PDAPP mice. As to the kind of experiment: In vivo Inhibition of Beta-Secretase (brain Abeta 1-x in PDAPP mice). Details: species or system mouse. To be noted: three hours after dosing, compared to vehicle-treated mice. The text has this: Several animal models, including mouse, guinea pig, dog, and monkey, may be used to screen for inhibition of beta-secretase activity in vivo following compound treatment Animals used in this invention can be wild type, transgenic, or gene knockout animals. […] One to twenty-four hours following the administration of compound, animals are sacrificed, and brains are removed for analysis of Abeta 1-x. “Abeta 1-x” as used herein refers to the sum of Abeta species that begin with residue 1 and end with a C-terminus greater than residue 28. This detects the majority of Abeta species and is often called “total Abeta”. Total Abeta peptides (Abeta 1-x) levels are measured by a sandwich ELISA, using monoclonal 266 as a capture antibody and biotinylated 3D6 as reporting antibody. (See May, et al., Journal of Neuroscience, 31, 16507-16516 (2011)).
For acute studies, compound or appropriate vehicle is administered and animals are sacrificed at about 3 hours after dosing. Brain tissue, is obtained from selected animals and analyzed for the presence of Abeta 1-x. After chronic dosing brain tissues of older APP transgenic animals may also be analyzed for the amount of beta-amyloid plaques following compound treatment.

Another experiment has as its target human BACE1 (1-460):Fc (Homo sapiens (Human), UniProt P56817). As to the kind of experiment: BACE1 FRET Assay. The experiment is classed as biochemical. To be noted: purified recombinant huBACE1:Fc, FRET substrate, pH 4.6; Mean ± SEM. How it is done: For in vitro enzymatic and cellular assays, test compounds are prepared in DMSO to make up a 10 mM stock solution. The stock solution is serially diluted in DMSO to obtain a ten-point dilution curve with final compound concentrations ranging from 10 μM to 0.05 nM in a 96-well round-bottom plate before conducting the in vitro enzymatic and whole cell assays.
Human BACE1 (accession number: AF190725) is cloned from total brain cDNA by RT-PCR. The nucleotide sequences corresponding to amino acid sequences #1 to 460 are inserted into the cDNA encoding human IgG1 (Fc) polypeptide (Vassar et al., Science, 286, 735-742 (1999)). This fusion protein of BACE1 (1-460) and human Fc, named huBACE1:Fc, is constructed into the pJB02 vector. Human BACE1 (1-460):Fc (huBACE1:Fc) is transiently expressed in HEK293 cells. 250 μg cDNA of each construct is mixed with Fugene 6 and added to 1 liter HEK293 cells. Four days after the transfection, conditioned media are harvested for purification. huBACE1:Fc is purified by Protein A chromatography. The enzyme is stored at −80° C. in small aliquots. (See Yang, et. al., J. Neurochemistry, 91(6) 1249-59 (2004)
Serial dilutions of test compounds are prepared as described above. Compounds are further diluted 20× in KH2PO4 buffer. Ten μL of each dilution is added to each well on row A to H of a corresponding low protein binding black plate containing the reaction mixture (25 μL of 50 mM KH2PO4, pH 4.6, 1 mM TRITON® X-100, 1 mg/mL Bovine Serum Albumin, and 15 μM of FRET substrate) (See Yang, et. al., J. Neurochemistry, 91(6) 1249-59 (2004)). The content is mixed well on a plate shaker for 10 minutes. Fifteen μL of two hundred pM human BACE1 (1-460):Fc (See Vasser, et al., Science, 286, 735-741 (1999)) in the KH2PO4 buffer is added to the plate containing substrate and test compounds to initiate the reaction. The RFU of the mixture at time 0 is recorded at excitation wavelength 355 nm and emission wavelength 460 nm, after brief mixing on a plate shaker. The reaction plate is covered with aluminum foil and kept in a dark humidified oven at room temperature for 16 to 24 h. The RFU at the end of incubation is recorded with the same excitation and emission settings used at time 0. The difference of the RFU at time 0 and the end of incubation is representative of the activity of BACE1 under the compound treatment. RFU differences are plotted versus inhibitor concentration and a curve is fitted with a four-parameter logistic equation to obtain the IC50 values. (May, et al., Journal of Neuroscience, 31, 16507-16516 (2011)).

Setting [3] is: Abeta 1-40, Mean ± SEM, read-out: PDAPP Neuron A-beta (1-40) ELISA IC50.
The mark [4] stands for this setting: Abeta 1-42, Mean ± SEM, read-out: PDAPP Neuron A-beta (1-42) ELISA IC50.

Chain of human BACE1 (1-460):Fc (P56817 22-460): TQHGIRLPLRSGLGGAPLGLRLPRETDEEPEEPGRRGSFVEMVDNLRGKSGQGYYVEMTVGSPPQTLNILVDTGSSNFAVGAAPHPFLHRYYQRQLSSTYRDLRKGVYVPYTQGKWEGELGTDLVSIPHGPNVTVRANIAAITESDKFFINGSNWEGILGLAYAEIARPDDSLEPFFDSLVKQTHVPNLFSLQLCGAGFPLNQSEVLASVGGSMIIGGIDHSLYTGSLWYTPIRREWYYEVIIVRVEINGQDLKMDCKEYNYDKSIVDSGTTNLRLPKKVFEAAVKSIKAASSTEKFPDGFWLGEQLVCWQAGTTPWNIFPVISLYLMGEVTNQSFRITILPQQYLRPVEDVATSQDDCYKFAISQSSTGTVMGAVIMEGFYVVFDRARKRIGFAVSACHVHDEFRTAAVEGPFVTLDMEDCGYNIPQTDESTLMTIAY

Usually IC50 stands for the concentration that inhibits the measured activity by half. On to `Cl.NC1=N[C@@]2(c3cc(NC(=O)c4ccc(F)cn4)ccc3F)COC[C@@]2(F)CS1` [Example 1, N-[3-[(4aR,7aS)-2-Amino-4a-fluoro-5,7-dihydro-4H-furo[3,4-d][1,3]thiazin-7a-yl]-4-fluoro-phenyl]-5-fluoro-pyridine-2-carboxamide hydrochloride], for which the results for the half-maximal inhibitory concentration (IC50) (in experiment [1] (setting [3]); in experiment [1] (setting [4]); at human BACE1 (1-460):Fc) were 83.3 nM, 76.8 nM and 15.6 nM, respectively. The “Abeta 1-x peptide levels reduced in brain cortex” value in experiment [2] (30 mg/kg oral dose) is “approximately 48%”. In addition, in experiment [2] (30 mg/kg oral dose), the “Abeta 1-x peptide levels reduced in brain hippocampus” value is on record as “approximately 37%”.
Take `COc1cnc(C(=O)Nc2ccc(F)c([C@]34COC[C@@]3(F)CSC(N)=N4)c2)cn1.Cl` [Example 2, N-[3-[(4aR,7aS)-2-Amino-4a-fluoro-5,7-dihydro-4H-furo[3,4-d][1,3]thiazin-7a-yl]-4-fluoro-phenyl]-5-methoxy-pyrazine-2-carboxamide hydrochloride]: the figures for the 50% inhibitory concentration (IC50) in experiment [1] (setting [3]) and in experiment [1] (setting [4]) were 29.5 nM and 21.9 nM, respectively. For the same compound, the entries for the “Abeta 1-x peptide levels reduced in brain cortex” value in experiment [2] (10 mg/kg oral dose) and in experiment [2] (30 mg/kg oral dose) were “approximately 45%” and “approximately 54%”, respectively. Besides, the figures for the “Abeta 1-x peptide levels reduced in brain hippocampus” value in experiment [2] (10 mg/kg oral dose) and in experiment [2] (30 mg/kg oral dose) were “approximately 40%” and “approximately 52%”, respectively.
With `Cl.N#Cc1ccc(C(=O)Nc2ccc(F)c([C@]34COC[C@@]3(F)CSC(N)=N4)c2)nc1` [Example 3, N-[3-[(4aR,7aS)-2-Amino-4a-fluoro-5,7-dihydro-4H-furo[3,4-d][1,3]thiazin-7a-yl]-4-fluoro-phenyl]-5-cyano-pyridine-2-carboxamide hydrochloride], the IC50 in experiment [1] (setting [3]) stood at 20.2 nM; in experiment [1] (setting [4]), 16.3 nM; at human BACE1 (1-460):Fc it was 6.66 nM. Moreover, in experiment [2] (10 mg/kg oral dose), the “Abeta 1-x peptide levels reduced in brain cortex” value is recorded as “approximately 46%”. Also, the “Abeta 1-x peptide levels reduced in brain hippocampus” value in experiment [2] (10 mg/kg oral dose) was “approximately 34%”.
For `Cl.N#Cc1ccc(C(=O)Nc2ccc(F)c([C@]34COC[C@@]3(F)COC(N)=N4)c2)nc1` [Example 34, N-[3-[(4aR,7aS)-2-Amino-4a-fluoro-5,7-dihydro-4H-furo[3,4-d][1,3]oxazin-7a-yl]-4-fluoro-phenyl]-5-cyano-pyridine-2-carboxamide hydrochloride], the 50% inhibitory concentration (IC50) in experiment [1] (setting [3]) was 49.9 nM; in experiment [1] (setting [4]) it was 36.5 nM; on human BACE1 (1-460):Fc it was 45 nM. Moreover, the “Abeta 1-x peptide levels reduced in brain hippocampus” value in experiment [2] (10 mg/kg oral dose) is listed as “approximately 26%”.
For `NC1=N[C@@]2(c3cc(NC(=O)c4cnc(OCC5(F)CC5)cn4)ccc3F)COC[C@@]2(F)CO1` [Example 57, N-[3-[(4aR,7aS)-2-Amino-4a-fluoro-5,7-dihydro-4H-furo[3,4-d][1,3]oxazin-7a-yl]-4-fluoro-phenyl]-5-[(1-fluorocyclopropyl)methoxy]pyrazine-2-carboxamide hydrochloride], the figures for the IC50 (in experiment [1] (setting [3]); in experiment [1] (setting [4]); on human BACE1 (1-460):Fc) were 186 nM, 182 nM and 25.7 nM, respectively.
